Experimental data taken from patent publication US20250367138A1 (Novocure GmbH, priority 2024, published 2025).

What was measured:
[1] = test system: GBM cells; assay: Preliminary work: MGO-induced glycation and invasion of GBM cells; type: cell-based
Excerpt: Glioblastoma (GBM) is a highly aggressive and invasive brain tumor.

[2] = test system: GBM cell lines U251, LN229, and U87; assay: Live cell count of GBM cell lines treated with MGO and TTFields (Inovitro system); type: cell-based
Excerpt: At the experimental endpoint cells were visualized by microscopy, counted, and taken for protein or RNA extraction for further analysis.
GBM cell lines U251, LN229, and U87 were used in this Example. […] The Inovitro™ system was operated with low intensity (1-3 V/cm) and medium frequency (200 kHz) alternating electric fields, which have a selective antimitotic effect on cancer cells. […] In addition, the arrangement of alpha and gamma tubulin was visualised by immunofluorescence.
The results of each experiment are indicated as cell count (live cells).

SMILES: CC(=O)C=O [MGO, methylglyoxal]
- glycation of cell surface proteins [1]: induces glycation of cell surface proteins
- invasion / phenotype ([1]; associated with MGO-induced glycation): increased invasion
- proliferation of cells (cell count) ([2]; 0.1 mM MGO alone, FIG. 2): increased proliferation
- effect of TTFields on proliferation of cells under MGO ([2]; 0.1 mM MGO plus TTFields (200 kHz, 1-3 V/cm), FIG. 2): reduce the increased proliferation
- rate of apoptosis with additional TTFields ([2]; 0.3 mM MGO over the entire period plus TTFields (200 kHz, 1-3 V/cm)): enhanced
- rate of apoptosis ([2]; 0.3 mM MGO over the entire period, alone, FIGS. 3-4): increased rate of apoptosis
- combination effect of concomitant TTFields and MGO (live cell count) ([2]; Example 2, experiments A-H: 0.1 or 0.3 mmol/L MGO, TTFields 24-72 h, U251, LN229, U87, FIGS. 5-12): synergistic effect
